From ChEMBL document CHEMBL1201862, “PubChem BioAssay data set” (2004) come the findings set out here.

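Protocol summary: plate cells (96-well), add compound at 5 concentrations, incubate 48 h, interpolate endpoints linearly. GI50 = concentration required for 50% inhibition of growth.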 Activity calls are given as the source filed them. No stated cut-off is given here; in the data, active = GI50 up to about 1.1 µM and inactive = higher.

Test systems include CCRF-CEM; SF-539; HCT-116; HOP-62; SW-620; CAKI-1; NCI-H522; NCI-H460; M14; SNB-19; COLO 205; A498; ACHN; MDA-MB-231; MOLT-4; OVCAR-5; UO-31; A549; SR; SK-OV-3.
Holding throughout (assay): inhibition of tumour cell growth, NCI panel, 48 h

Consider `COC(=O)[C@@H](Cc1ccccc1)N1O[C@]12CCCC[C@@H]2NC(=O)OC(C)(C)C` (some centres undefined), for which the GI50 in the experiment with CCRF-CEM is 14.7 µM (inactive); with SF-539, 19.2 µM (inactive); in the experiment with HCT-116, 38.7 µM (inactive); in the experiment on HOP-62 it was 18.6 µM (inactive); in the experiment on SW-620 it was 15.8 µM (inactive); in the experiment on CAKI-1, 35.8 µM (inactive). Besides, the GI50 in the experiment on NCI-H522 is 16.7 µM (inactive); in the experiment with NCI-H460, 25.5 µM (inactive); with M14 it was 19.1 µM (inactive); with SNB-19, 74.3 µM (inactive); with COLO 205, 26.7 µM (inactive); in the experiment on A498, 41.8 µM (inactive). In addition, the GI50 with ACHN is 18.5 µM (inactive); with MDA-MB-231, 19.5 µM (inactive); in the experiment on MOLT-4, 37.5 µM (inactive); with OVCAR-5, 25.1 µM (inactive); in the experiment with UO-31 it was 14.5 µM (inactive); in the experiment on A549, 29.2 µM (inactive). For the same compound, the GI50 with SR was 29.3 µM (inactive).

As to `c1ccc(C(=NNc2nc3ccccc3o2)c2ccccn2)nc1`, the GI50 is < 0.01 µM (active) in the experiment on CCRF-CEM; 0.0292 µM (active) in the experiment on SK-OV-3; 0.0931 µM (active) with SF-539; < 0.0117 µM (active) in the experiment on HCT-116; 0.0408 µM (active) with HOP-62; 0.024 µM (active) in the experiment with SW-620. Further, the GI50 was 0.0723 µM (active) in the experiment with CAKI-1; 0.0776 µM (active) with NCI-H522; 0.0281 µM (active) with M14; 0.194 µM (active) in the experiment with SNB-19; < 0.01 µM (active) with COLO 205; 0.182 µM (active) with A498. The GI50 was 0.0198 µM (active) with ACHN; 0.055 µM (active) in the experiment on MDA-MB-231; < 0.0105 µM (active) in the experiment with MOLT-4; < 0.0175 µM (active) in the experiment with OVCAR-5; 0.0685 µM (active) in the experiment with UO-31; 0.151 µM (active) in the experiment with A549. In addition, the GI50 in the experiment with SR was 0.0388 µM (active).

`O=C1C=CC2(O[C@H](C3CCCCC3)[C@@H](C3CCCCC3)O2)C(SC(=O)c2ccccc2)C1` (some centres undefined): the GI50 with CCRF-CEM was 1.26 µM (inactive); in the experiment with SK-OV-3 it was 12.9 µM (inactive); with SF-539, 2.88 µM (inactive); in the experiment with HCT-116, 0.918 µM (active); in the experiment with HOP-62, 3.23 µM (inactive); in the experiment with SW-620 it was 1.91 µM (inactive). The GI50 in the experiment on NCI-H522 was 1.04 µM (active); with NCI-H460, 7.8 µM (inactive); in the experiment on M14, 2.14 µM (inactive); with SNB-19, 1.44 µM (inactive); in the experiment with COLO 205, 5.87 µM (inactive); in the experiment on A498, 8.41 µM (inactive). Besides, the GI50 in the experiment on ACHN was 1.94 µM (inactive); in the experiment on MDA-MB-231, 1.39 µM (inactive); with MOLT-4 it was 1.09 µM (active); in the experiment with OVCAR-5, 1.88 µM (inactive); in the experiment on UO-31, 1.55 µM (inactive); with A549 it was 6.07 µM (inactive). Also, the GI50 in the experiment on SR was 0.925 µM (active).

Take `CNC(=O)Nc1ccccc1`: the GI50 with CCRF-CEM, in the experiment on SF-539, in the experiment with HCT-116, in the experiment on HOP-62, in the experiment on SW-620 and in the experiment on CAKI-1 was > 100 µM (inactive) throughout. Besides, the GI50 with NCI-H522, in the experiment with NCI-H460, in the experiment with M14, with SNB-19, in the experiment on COLO 205 and in the experiment on A498 was > 100 µM (inactive) in each case. Besides, the GI50 in the experiment with ACHN, with MDA-MB-231, in the experiment on MOLT-4, in the experiment with OVCAR-5, in the experiment with UO-31 and in the experiment with A549 was > 100 µM (inactive) each time. Further, in the experiment with SR, the GI50 was > 100 µM (inactive).

For the compound `Cc1c(S(=O)(=O)O)ccc(/N=N/c2c(O)c(C(=O)O)cc3ccccc23)c1Cl`, the GI50 is > 100 µM (inactive) with CCRF-CEM; > 100 µM (inactive) in the experiment with SK-OV-3; > 100 µM (inactive) in the experiment on HCT-116; > 100 µM (inactive) in the experiment on HOP-62; > 100 µM (inactive) in the experiment with SW-620; > 86.5 µM (inactive) in the experiment on CAKI-1. Moreover, the GI50 with NCI-H522, in the experiment on NCI-H460, in the experiment with M14, in the experiment on SNB-19, in the experiment on COLO 205 and in the experiment on A498 was > 100 µM (inactive) throughout. In addition, the GI50 with ACHN was > 100 µM (inactive); in the experiment with MDA-MB-231 it was > 49.8 µM (inactive); in the experiment with MOLT-4 it was > 100 µM (inactive); with OVCAR-5 it was > 100 µM (inactive); in the experiment on UO-31, > 100 µM (inactive); in the experiment with A549 it was > 100 µM (inactive). Besides, the GI50 in the experiment with SR is > 50.2 µM (inactive).

Consider `FC(F)(F)c1ccccc1C1SCC2=Nc3ccccc3CN21` (centres undefined), for which the GI50 in the experiment on CCRF-CEM is 26.5 µM (inactive); with SK-OV-3, 18.6 µM (inactive); in the experiment with SF-539, 10.8 µM (inactive); with HCT-116 it was 11.1 µM (inactive); with HOP-62, 11.1 µM (inactive); in the experiment on SW-620, 32.4 µM (inactive). Moreover, the GI50 in the experiment with CAKI-1 was 24.9 µM (inactive); in the experiment with NCI-H460, 15.7 µM (inactive); in the experiment on M14 it was 12.2 µM (inactive); with SNB-19, 10.1 µM (inactive); in the experiment with COLO 205, 12.5 µM (inactive); in the experiment with A498 it was 17.1 µM (inactive). In addition, the GI50 in the experiment on MDA-MB-231 is 23.5 µM (inactive); in the experiment with MOLT-4 it was 21.8 µM (inactive); with OVCAR-5, 12 µM (inactive); in the experiment with UO-31, 11.8 µM (inactive); with A549, 14.5 µM (inactive); in the experiment with SR, 21.2 µM (inactive).

As for `CC/C=C/C(=O)CC(O)(C(F)(F)F)C(F)(F)F`, the GI50 in the experiment with CCRF-CEM is 73.5 µM (inactive); in the experiment with SK-OV-3, > 100 µM (inactive); with SF-539 it was > 100 µM (inactive); with HCT-116, > 100 µM (inactive); in the experiment on HOP-62 it was > 100 µM (inactive); in the experiment with SW-620 it was > 100 µM (inactive). Further, the GI50 in the experiment with NCI-H460 was > 100 µM (inactive); in the experiment on M14 it was > 100 µM (inactive); in the experiment on SNB-19, > 100 µM (inactive); in the experiment on COLO 205 it was > 100 µM (inactive); with A498, 22.5 µM (inactive); with ACHN it was > 100 µM (inactive). Also, the GI50 in the experiment on MDA-MB-231 was > 100 µM (inactive); with MOLT-4, > 100 µM (inactive); with OVCAR-5, > 100 µM (inactive); in the experiment with UO-31, 54 µM (inactive); in the experiment with A549 it was > 100 µM (inactive); in the experiment with SR it was > 100 µM (inactive).

`CC(=O)NNC1=NN(C(C)=O)C2(S1)C(=O)Nc1ccc(Br)cc12` (centres undefined): the GI50 in the experiment on CCRF-CEM, in the experiment with SF-539, with HCT-116, in the experiment with HOP-62, in the experiment on CAKI-1 and with NCI-H522 was > 100 µM (inactive) throughout. Further, the GI50 was 93.3 µM (inactive) with NCI-H460; > 100 µM (inactive) in the experiment on M14; > 100 µM (inactive) in the experiment with SNB-19; > 10 µM (inactive) in the experiment with COLO 205; > 100 µM (inactive) in the experiment on A498; > 100 µM (inactive) with ACHN. Further, the GI50 in the experiment on MDA-MB-231 was > 100 µM (inactive); in the experiment on MOLT-4 it was > 100 µM (inactive); in the experiment on OVCAR-5, > 100 µM (inactive); in the experiment with UO-31, 39.4 µM (inactive); in the experiment on A549 it was > 100 µM (inactive); in the experiment on SR, > 100 µM (inactive).

For the compound `Cc1ccc(N2C(=O)C(O)=C(C(=O)C(C)(C)C)C2c2ccc([N+](=O)[O-])cc2)cc1` (centres undefined), the GI50 with CCRF-CEM was 26.3 µM (inactive); in the experiment on SK-OV-3, 20.8 µM (inactive); in the experiment on SF-539, 24.9 µM (inactive); with HCT-116, 16 µM (inactive); with HOP-62, 17.3 µM (inactive); in the experiment on CAKI-1, 3.94 µM (inactive). The GI50 in the experiment with NCI-H460 was 9.27 µM (inactive); with M14, 18.2 µM (inactive); in the experiment on SNB-19, 19.4 µM (inactive); in the experiment on COLO 205 it was 15.7 µM (inactive); in the experiment on A498, 29.3 µM (inactive); in the experiment on ACHN, 16.6 µM (inactive). Also, the GI50 with MDA-MB-231 is 18.9 µM (inactive); in the experiment with MOLT-4, 7.26 µM (inactive); in the experiment with OVCAR-5, 49.2 µM (inactive); in the experiment on UO-31 it was 29.6 µM (inactive); in the experiment with A549, 23.6 µM (inactive); with SR, 7.53 µM (inactive).

Turning to `CNC(=O)/C(C#N)=C(\N)N1CCCC1`, the GI50 in the experiment on CCRF-CEM, with SK-OV-3, in the experiment with SF-539, in the experiment with HCT-116, in the experiment with HOP-62 and in the experiment on SW-620 was > 100 µM (inactive) each time. Also, the GI50 with CAKI-1, in the experiment with NCI-H522, in the experiment with NCI-H460, in the experiment on SNB-19, in the experiment with COLO 205 and with A498 was > 100 µM (inactive) in each case. The GI50 in the experiment with ACHN, with MDA-MB-231, in the experiment on MOLT-4, in the experiment on OVCAR-5, with UO-31 and with A549 was > 100 µM (inactive) throughout. The GI50 with SR is > 100 µM (inactive).

As to `COc1cc2cc(C(=O)N3CC(CCl)c4ccc(O)cc43)[nH]c2c(OC)c1OC` (centres undefined), the GI50 was < 0.01 µM (active) with CCRF-CEM; 0.00171 µM (active) in the experiment on SF-539; < 0.0001 µM (active) in the experiment on HCT-116; 0.00363 µM (active) with HOP-62; 0.00233 µM (active) in the experiment on SW-620; 0.00218 µM (active) with CAKI-1. Besides, the GI50 was < 0.0001 µM (active) in the experiment with NCI-H522; 0.00163 µM (active) in the experiment with M14; 0.00406 µM (active) in the experiment on SNB-19; 0.0227 µM (active) with COLO 205; < 0.01 µM (active) with A498; < 0.0001 µM (active) with ACHN. Besides, the GI50 in the experiment with MDA-MB-231 is 0.00196 µM (active); in the experiment with MOLT-4, 0.000865 µM (active); in the experiment on OVCAR-5, 0.129 µM (active); in the experiment on UO-31, 0.0198 µM (active); in the experiment on A549 it was 0.000501 µM (active); in the experiment with SR, 0.0034 µM (active).
